Counter-ions that a name gives are not always drawn.
target: T1, rh beta tryptase (Homo sapiens, UniProt P20231); assay: Tryptase inhibition test (cleavage of N-p-tosyl-Gly-Pro-Lys-para-nitroaniline, p-nitroaniline measured at 405 nm); format: biochemical; settings: concentration at which 50% of the tryptase enzyme activity is inhibited; substrate 0.6 mM, pH 7.4, 37° C.
T1 construct: purchased Promega
Protocol: The compounds according to the invention are characterised by their tryptase-inhibiting activity. This ability to inhibit tryptase was investigated using the test described below.
The measurement is carried out in Tris HCl buffer (100 mM), which additionally contains calcium (5 mM) and heparin ([…]), at pH 7.4. The standard used is rh beta tryptase which may be obtained commercially from Promega, for example. The substrate used is N-p-tosyl-Gly-Pro-Lys-para-nitroaniline in a concentration of 0.6 mM. The substrate is digested with tryptase to form p-nitroaniline which can be measured at 405 nm. Usually, an incubation period of 5 minutes and an incubation temperature of 37° C. are chosen. The enzyme activity used is 0.91 U/ml. The measurements are carried out in an Autoanalyser (Cobas Bio) made by Hofmann LaRoche. The potential inhibitory substances are used in concentrations of 10 μM in the screening, the inhibition of the tryptase being given in percent. The IC50 is determined at over 70% inhibition (concentration at which 50% of the enzyme activity is inhibited). After 5 minutes' pre-incubation of the potential inhibitory substances, the substrate is added to start the reaction, the formation of p-nitroaniline being taken as a measurement of the enzyme activity after 5 minutes, after testing the linearity.
The data obtained after the above test has been carried out (% inhibition) are assembled in Table 25 for the compounds according to the invention. The IC50 values obtained for the compounds according to the invention can be found in Table 26.
Table 26 contains the IC50 binding values obtained for the compounds according to the invention. These were measured as described above.

T1 sequence (P20231 31-275): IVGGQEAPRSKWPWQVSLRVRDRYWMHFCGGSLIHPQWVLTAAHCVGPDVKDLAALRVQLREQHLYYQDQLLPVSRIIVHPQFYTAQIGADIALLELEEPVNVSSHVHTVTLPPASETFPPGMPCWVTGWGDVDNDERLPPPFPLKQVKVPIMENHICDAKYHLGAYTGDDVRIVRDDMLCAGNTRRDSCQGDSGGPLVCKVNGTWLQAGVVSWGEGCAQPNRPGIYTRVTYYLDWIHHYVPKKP

Structure (SMILES)	IC50 [nM]
Cn1c(CCc2ccc(C(=N)N)cc2)nc2cc(C(=O)N(CCN)C3CCCCC3)ccc21 [Example 37, 2-[2-(4-Amidinophenyl)-ethyl]-1-methyl-benzimidazol-5-yl-carboxylic Acid-[N-(2-amino-ethyl)-N-cyclohexyl-amide]-dihydrochloride]	68
Cn1c(CCc2ccc(C(=N)N)cc2)nc2cc(C(=O)NCCNc3ccccc3)ccc21 [Example 38, 2-[2-(4-Amidinophenyl)-ethyl]-1-methyl-benzimidazol-5-yl-carboxylic Acid-N-(2-phenylamino-ethyl)-amide-dihydrochloride]	113
Cn1c(CCc2ccc(CN)cc2)nc2cc(C(=O)NCCC(c3ccccc3)c3ccccc3)ccc21 [Example 40, 2-[2-(4-Aminomethyl-phenyl)-ethyl]-1-methyl-benzimidazol-5-yl-carboxylic Acid-N-(3,3-diphenylpropyl)-amide-dihydrochloride]	192
Cc1ccccc1N1CCCN(C(=O)c2ccc3c(c2)nc(CCc2ccc(CN)cc2)n3C)CC1 [Example 41, 2-[2-(4-Aminomethyl-phenyl)-ethyl]-1-methyl-benzimidazol-5-yl-carboxylic Acid-[N′-(2-methyl-phenyl)-diazepide]-hydrochloride]	172
Cn1c(CCc2ccc(CN)cc2)nc2cc(C(=O)N(CCCc3ccccc3)Cc3ccc(CN)cc3)ccc21 [Example 42, 2-[2-(4-aminomethyl-phenyl)-ethyl]-1-methyl-benzimidazol-5-yl-carboxylic Acid-N-(4-aminomethyl-benzyl)-N-(3-phenylpropyl)-amide-dihydrochloride]	836
Cn1c(CCc2ccc(CN)cc2)nc2cc(C(=O)N(CCC(c3ccccc3)c3ccccc3)Cc3ccc(CN)cc3)ccc21 [Example 43, 2-[2-(4-Aminomethyl-phenyl)-ethyl]-1-methyl-benzimidazol-5-yl-carboxylic Acid-N-(4-aminomethylbenzyl)-N-(3,3-diphenylpropyl)-amide-dihydrochloride]	319
Cc1cccc(N2CCN(C(=O)c3ccc4c(c3)nc(CCc3ccc(C(=N)N)cc3)n4C)CC2)c1 [Example 47, 2-[2-(4-Amidinophenyl)-ethyl]-1-methyl-benzimidazol-5-yl-carboxylic Acid-[N′-(3-methylphenyl)-piperazide]]	118
CCOc1cccc(N2CCN(C(=O)c3ccc4c(c3)nc(CCc3ccc(C(=N)N)cc3)n4C)CC2)c1 [Example 48, 2-[2-(4-Amidinophenyl)-ethyl]-1-methyl-benzimidazol-5-yl-carboxylic Acid-[N′-(3-ethoxyphenyl)-piperazide]]	147
CC(C)Oc1cccc(N2CCN(C(=O)c3ccc4c(c3)nc(CCc3ccc(C(=N)N)cc3)n4C)CC2)c1 [Example 49, 2-[2-(4-Amidinophenyl)-ethyl]-1-methyl-benzimidazol-5-yl-carboxylic Acid-[N ′-(3-isopropyloxyphenyl)-piperazide]]	152
Cn1c(CCc2ccc(C(=N)N)cc2)nc2cc(C(=O)N3CCN(C4CCCC4)CC3)ccc21 [Example 50, 2-[2-(4-Amidinophenyl)-ethyl]-1-methyl-benzimidazol-5-yl-carboxylic Acid-[N′-(cyclopentyl)-piperazide]]	176
Cc1ccccc1N1CCN(C(=O)c2ccc3c(c2)nc(CCc2ccc(C(=N)N)cc2)n3C)CC1 [Example 51, 2-[2-(4-Amidinophenyl)-ethyl]-1-methyl-benzimidazol-5-yl-carboxylic Acid-[N′-(2-methylphenyl)-piperazide]]	231
Cn1c(CCc2ccc(C(=N)N)cc2)nc2cc(C(=O)N3CCN(c4ccccn4)CC3)ccc21 [Example 52, 2-[2-(4-Amidinophenyl)-ethyl]-1-methyl-benzimidazol-5-yl-carboxylic Acid-[N′-(2-pyridyl)-piperazide]]	231
COc1ccccc1N1CCN(C(=O)c2ccc3c(c2)nc(CCc2ccc(C(=N)N)cc2)n3C)CC1 [Example 53, 2-[2-(4-Amidinophenyl)-ethyl]-1-methyl-benzimidazol-5-yl-carboxylic Acid-[N′-(2-methoxyphenyl)-piperazide]]	241
CCOc1ccccc1N1CCN(C(=O)c2ccc3c(c2)nc(CCc2ccc(C(=N)N)cc2)n3C)CC1 [Example 54, 2-[2-(4-Amidinophenyl)-ethyl]-1-methyl-benzimidazol-5-yl-carboxylic Acid-[N′-(2-ethoxyphenyl)-piperazide]]	305
Cn1c(CCc2ccc(C(=N)N)cc2)nc2cc(C(=O)N3CCN(Cc4ccccc4)CC3)ccc21 [Example 55, 2-[2-(4-Amidinophenyl)-ethyl]-1-methyl-benzimidazol-5-yl-carboxylic Acid-[N′-benzyl-piperazide]]	346
CCOCCCn1c(CCc2ccc(C(=N)N)cc2)nc2cc(C(=O)N(Cc3ccc(CN)cc3)Cc3cccc(OC)c3)ccc21 [Example 70, 2-[2-(4-amidinophenyl)ethyl]-1-(3-ethoxy-propyl)-benzimidazol-5-yl-carboxylic acid-N-[4-(amino-methyl)-benzyl]-N-(3-methoxybenzyl)-amide]	422
CCCCN(Cc1ccc(CN)cc1)C(=O)c1ccc2c(c1)nc(CCc1ccc(C(=N)N)cc1)n2CCCOCC [Example 86, 2-[2-(4-amidinophenyl)ethyl]-1-(3-ethoxypropyl)-benzimidazol-5-yl-carboxylic acid-N-[4-(amino-methyl)-benzyl]-N-n-butyl-amide]	135

same assay, conditions: inhibition of rh beta tryptase at 10 μM test substance; substrate N-p-tosyl-Gly-Pro-Lys-para-nitroaniline 0.6 mM, pH 7.4, 37° C., 5 minutes

Structure (SMILES)	inhibition at 10 µM [%]
CCOCCCn1c(CCc2ccc(C(=N)N)cc2)nc2cc(C(=O)N(Cc3ccc(CN)cc3)Cc3cccc(OC)c3)ccc21 [Example 70, 2-[2-(4-amidinophenyl)ethyl]-1-(3-ethoxy-propyl)-benzimidazol-5-yl-carboxylic acid-N-[4-(amino-methyl)-benzyl]-N-(3-methoxybenzyl)-amide]	63
CCCCN(CCCC)CCCn1c(CCc2ccc(C(=N)N)cc2)nc2cc(C(=O)N(Cc3ccc(CN)cc3)Cc3cccc(OC)c3)ccc21 [Example 71, 2-[2-(4-amidinophenyl)ethyl]-1-(3-di-n-butylaminopropyl)-benzimidazol-5-yl-carboxylic acid-N-[4-(amino-methyl)-benzyl]-N-(3-methoxybenzyl)-amide]	58
COc1cccc(CN(Cc2ccc(CN)cc2)C(=O)c2ccc3c(c2)nc(CCc2ccc(C(=N)N)cc2)n3CCCNC(=O)Cc2ccccc2)c1 [Example 72, 2-[2-(4-amidinophenyl)ethyl]-1-[3-(benzylcarbonylamino)-propyl]-benzimidazol-5-yl-carboxylic acid-N-[4-(amino-methyl)-benzyl]-N-(3-methoxybenzyl)-amide]	69
COc1cccc(CN(Cc2ccc(CN)cc2)C(=O)c2ccc3c(c2)nc(CCc2ccc(C(=N)N)cc2)n3CC2CC2)c1 [Example 74, 2-[2-(4-amidinophenyl)ethyl]-1-cyclopropylmethyl-benzimidazol-5-yl-carboxylic acid-N-[4-(amino-methyl)-benzyl]-N-(3-methoxybenzyl)-amide]	66
COc1cccc(CN(Cc2ccc(CN)cc2)C(=O)c2ccc3c(c2)nc(CCc2ccc(C(=N)N)cc2)n3CCc2ccccc2)c1 [Example 75, 2-[2-(4-amidinophenyl)ethyl]-1-(2-phenyl-ethyl)-benzimidazol-5-yl-carboxylic acid-N-[4-(amino-methyl)-benzyl]-N-(3-methoxybenzyl)-amide]	60
COc1cccc(CN(Cc2ccc(CN)cc2)C(=O)c2ccc3c(c2)nc(CCc2ccc(C(=N)N)cc2)n3CCc2ccc(Cl)cc2)c1 [Example 76, 2-[2-(4-amidinophenyl)ethyl]-1-[2-(4-chlorophenyl)ethyl]-benzimidazol-5-yl-carboxylic acid-N-[4-(amino-methyl)-benzyl]-N-(3-methoxybenzyl)-amide]	58
COc1cccc(CN(Cc2ccc(CN)cc2)C(=O)c2ccc3c(c2)nc(CCc2ccc(C(=N)N)cc2)n3CCCN2CCN(c3ccccc3C)CC2)c1 [Example 80, 2-[2-(4-amidinophenyl)ethyl]-1-{3-[4-(2-methylphenyl)-piperazin-1-yl]-propyl}-benzimidazol-5-yl-carboxylic acid-N-[4-(amino-methyl)-benzyl]-N-(3-methoxybenzyl)-amide]	53
COc1cccc(CN(Cc2ccc(CN)cc2)C(=O)c2ccc3c(c2)nc(CCc2ccc(C(=N)N)cc2)n3CCCN2CCOCC2)c1 [Example 81, 2-[2-(4-amidinophenyl)ethyl]-1-[3-(morpholin-4-yl)-propyl]-benzimidazol-5-yl-carboxylic acid-N-[4-(amino-methyl)-benzyl]-N-(3-methoxybenzyl)-amide]	69
COc1cccc(CN(Cc2ccc(CN)cc2)C(=O)c2ccc3c(c2)nc(CCc2ccc(C(=N)N)cc2)n3CC2CCCO2)c1 (stereo not shown) [Example 82, 2-[2-(4-amidinophenyl)ethyl]-1-(tetrahydrofuran-2-yl-methyl)-benzimidazol-5-yl-carboxylic acid-N-[4-(amino-methyl)-benzyl]-N-(3-methoxybenzyl)-amide]	61
CCCCN(Cc1ccc(CN)cc1)C(=O)c1ccc2c(c1)nc(CCc1ccc(C(=N)N)cc1)n2CCCOCC [Example 86, 2-[2-(4-amidinophenyl)ethyl]-1-(3-ethoxypropyl)-benzimidazol-5-yl-carboxylic acid-N-[4-(amino-methyl)-benzyl]-N-n-butyl-amide]	72
CCCCN(CCCC)CCCn1c(CCc2ccc(C(=N)N)cc2)nc2cc(C(=O)N(CCCC)Cc3ccc(CN)cc3)ccc21 [Example 87, 2-[2-(4-amidinophenyl)ethyl]-1-(3-di-n-butylaminopropyl)-benzimidazol-5-yl-carboxylic acid-N-[4-(amino-methyl)-benzyl]-N-n-butyl-amide]	59
